Results from ChEMBL document CHEMBL2074413, “Effect of cisplatin-induced acute renal failure on bioavailability and intestinal secretion of quinolone antibacterial drugs in rats” (Pharm Res, 2004).
One block for each molecule: values may come before it.

Experiments:
Type in all cases: functional, cell-based
[1] = target: T1, ATP-dependent translocase ABCB1 (Homo sapiens, UniProt P08183); assay: TP_TRANSPORTER: transepithelial transport (basal to apical) of Levofloxacin at a concentration of 5uM in LLC-GA5-COL150 cells; details: pig, llc-ga5-col150, 5 µM
[2] = target: T1, ATP-dependent translocase ABCB1; assay: TP_TRANSPORTER: transepithelial transport (basal to apical) of Ciprofloxacin at 2uM in LLC-GA5-COL150 cells; details: pig, llc-ga5-col150, 2 µM
[3] = target: T1, ATP-dependent translocase ABCB1; assay: TP_TRANSPORTER: transepithelial transport (basal to apical) of Grepafloxacin at a concentration of 5uM in LLC-GA5-COL150 cells; details: pig, llc-ga5-col150, 5 µM
[4] = target: T1, ATP-dependent translocase ABCB1; assay: TP_TRANSPORTER: transepithelial transport (basal to apical) of Digoxin at a concentration of 58.8nM in LLC-GA5-COL150 cells; details: pig

T1 sequence (P08183 whole entry): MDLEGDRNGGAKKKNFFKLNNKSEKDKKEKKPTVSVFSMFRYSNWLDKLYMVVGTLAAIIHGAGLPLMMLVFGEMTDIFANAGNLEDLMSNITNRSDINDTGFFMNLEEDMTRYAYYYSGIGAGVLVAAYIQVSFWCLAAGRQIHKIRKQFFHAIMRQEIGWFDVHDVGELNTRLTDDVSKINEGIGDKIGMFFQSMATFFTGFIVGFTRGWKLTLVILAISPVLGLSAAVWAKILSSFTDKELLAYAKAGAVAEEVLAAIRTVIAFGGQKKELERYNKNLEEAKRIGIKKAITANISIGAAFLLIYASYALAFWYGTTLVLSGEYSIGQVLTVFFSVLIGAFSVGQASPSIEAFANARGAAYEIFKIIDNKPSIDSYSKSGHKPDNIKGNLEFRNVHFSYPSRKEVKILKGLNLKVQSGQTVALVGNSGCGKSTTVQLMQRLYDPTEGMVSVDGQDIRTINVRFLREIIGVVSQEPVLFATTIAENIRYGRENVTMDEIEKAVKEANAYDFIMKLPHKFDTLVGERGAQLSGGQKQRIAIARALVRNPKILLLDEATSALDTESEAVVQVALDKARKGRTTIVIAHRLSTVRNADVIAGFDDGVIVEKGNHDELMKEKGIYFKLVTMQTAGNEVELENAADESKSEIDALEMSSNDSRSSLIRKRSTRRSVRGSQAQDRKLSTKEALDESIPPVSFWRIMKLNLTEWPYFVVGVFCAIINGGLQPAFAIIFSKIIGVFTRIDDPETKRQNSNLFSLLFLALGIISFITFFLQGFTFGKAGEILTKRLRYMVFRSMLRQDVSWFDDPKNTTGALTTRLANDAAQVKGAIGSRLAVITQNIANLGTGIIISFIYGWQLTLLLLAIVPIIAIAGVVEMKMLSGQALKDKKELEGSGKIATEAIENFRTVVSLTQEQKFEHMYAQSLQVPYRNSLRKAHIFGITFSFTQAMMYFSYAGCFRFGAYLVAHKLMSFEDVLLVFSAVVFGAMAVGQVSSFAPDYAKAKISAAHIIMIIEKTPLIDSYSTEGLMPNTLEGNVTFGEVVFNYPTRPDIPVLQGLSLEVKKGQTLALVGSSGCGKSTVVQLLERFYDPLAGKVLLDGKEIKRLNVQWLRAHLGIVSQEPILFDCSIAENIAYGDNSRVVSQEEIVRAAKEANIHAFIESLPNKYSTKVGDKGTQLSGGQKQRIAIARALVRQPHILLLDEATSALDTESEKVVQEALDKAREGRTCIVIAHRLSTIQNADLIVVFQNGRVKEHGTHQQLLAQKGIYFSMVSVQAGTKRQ

Activity [1]: substrate [+]
Structure (SMILES): C[C@H]1COc2c(N3CCN(C)CC3)c(F)cc3c(=O)c(C(=O)O)cn1c23.C[C@H]1COc2c(N3CCN(C)CC3)c(F)cc3c(=O)c(C(=O)O)cn1c23.O [LEVOFLOXACIN]

Activity [2]: is not a substrate [-]
Structure (SMILES): O=C(O)c1cn(C2CC2)c2cc(N3CCNCC3)c(F)cc2c1=O [CIPROFLOXACIN]

Activity [3]: substrate [+]
Structure (SMILES): Cc1c(F)c(N2CCNC(C)C2)cc2c1c(=O)c(C(=O)O)cn2C1CC1 (centres undefined) [GREPAFLOXACIN]

Activity [4]: substrate [+]
Structure (SMILES): C[C@H]1O[C@@H](O[C@H]2[C@@H](O)C[C@H](O[C@H]3[C@@H](O)C[C@H](O[C@H]4CC[C@@]5(C)[C@H](CC[C@@H]6[C@@H]5C[C@@H](O)[C@]5(C)[C@@H](C7=CC(=O)OC7)CC[C@]65O)C4)O[C@@H]3C)O[C@@H]2C)C[C@H](O)[C@@H]1O [DIGOXIN]
